What was measured:
cholesterol-fed rat = assay: Serum cholesterol lowering action in cholesterol-fed rat; format: in vivo; details: for Reduction % of serum cholesterol value: cholesterol-fed rat, value to control
Method: Male Splague-Dawley rats weighing 300˜500 g (Nihon SLC Co. Ltd.) were fed MF-2 chow (Nihon Crea Co. Ltd.) until study onset. At the study onset, the chow was changed to MF-2 chow containing 1% cholesterol and 0.5% cholic acid. […] Twenty hours after the last administration, blood was collected from the abdominal aorta under ether anaesthesia, and serum was separated. The cholesterol value was measured using Cholesterol E Test Wako (Wako Pure Chemical Co. Ltd.). […] The experimental 5 and 6 indicates the combined dosage examples in the present invention. Each reduction percent is shown as the value to control.
Except of the use of compound 37 instead of compound 56, quietly same experiment to pharmacological experiment 1 was carried out. Each reduction % is shown as the value to control.

[1] = alone, 1 mg/kg/day, once a day for 7 days
[2] = alone, 0.03 mg/kg/day, once a day for 7 days
[3] = alone, 0.3 mg/kg/day, once a day for 7 days
[4] = combined dosage: compound 0.3 mg/kg/day + atorvastatin 1 mg/kg/day
[5] = combined dosage: compound 0.3 mg/kg/day + atorvastatin 1 mg/kg/day, 7 days
[6] = combined dosage: compound 0.3 mg/kg/day + fenofibrate 10 mg/kg/day
[7] = combined dosage: compound 0.3 mg/kg/day + fenofibrate 10 mg/kg/day, 7 days

CC(C)c1c(C(=O)Nc2ccccc2)c(-c2ccccc2)c(-c2ccc(F)cc2)n1CC[C@@H](O)C[C@@H](O)CC(=O)O [Atorvastatin, atorvastatin, reference compound]
Reduction % of serum cholesterol value (cholesterol-fed rat; [1]): 6.2%

Cc1ccc(N2C(=O)[C@H](CC[C@H](O)c3ccc(F)cc3)[C@H]2c2ccc([C@@H]3O[C@H](CO)[C@@H](O)[C@H](O)[C@H]3O)cc2)cc1 [Compound 36]
melting point: 79 to 81 °C

O=C1[C@H](CC[C@H](O)c2ccc(F)cc2)[C@@H](c2ccc([C@@H]3O[C@H](CO)[C@@H](O)[C@H](O)[C@H]3O)cc2)N1c1ccccc1 [Compound 37]
Reduction % of serum cholesterol value (cholesterol-fed rat; [2]): 5.6%
Reduction % of serum cholesterol value (cholesterol-fed rat; [3]): 18.0%
Reduction % of serum cholesterol value (cholesterol-fed rat; [1]): 31.0%
Combination effect on reduction % of serum cholesterol versus sum of agents alone (cholesterol-fed rat; [4]): synergistic effect
Reduction % of serum cholesterol value (cholesterol-fed rat; [5]): 31.5%
Combination effect on reduction % of serum cholesterol versus sum of agents alone (cholesterol-fed rat; [6]): synergistic effect
Reduction % of serum cholesterol value (cholesterol-fed rat; [7]): 39.5%
melting point: 80 to 82 °C

O=C1[C@H](CC[C@H](O)c2ccc(F)cc2)[C@@H](c2ccc(F)cc2)N1c1ccc(C[C@@H]2O[C@H](CO)[C@@H](O)[C@H](O)[C@H]2O)cc1 [Compound 38]
melting point: 200 to 201 °C

O=C1[C@H](CC[C@H](O)c2ccc(C[C@@H]3O[C@H](CO)[C@@H](O)[C@H](O)[C@H]3O)cc2)[C@@H](c2ccc(F)cc2)N1c1ccc(F)cc1 [Compound 39]
melting point: 126 to 128 °C

O=C1[C@H](CCCc2ccc(F)cc2)[C@H](c2ccc(C[C@@H]3O[C@H](CO)[C@@H](O)[C@H](O)[C@H]3O)cc2)N1c1ccc(F)cc1 [Compound 40]
melting point: 78 to 80 °C

O=C1[C@H](CC[C@H](O)c2ccccc2)[C@@H](c2ccc(C[C@@H]3O[C@H](CO)[C@@H](O)[C@H](O)[C@H]3O)cc2)N1c1ccccc1 [Compound 41]
melting point: 110 to 112 °C

CCOC(=O)c1ccc(N2C(=O)[C@H](CC[C@H](O)c3ccc(F)cc3)[C@H]2c2ccc(C[C@@H]3O[C@H](CO)[C@@H](O)[C@H](O)[C@H]3O)cc2)cc1 [Compound 42]
melting point: 56 to 58 °C

Cc1ccc(N2C(=O)[C@H](CCOc3ccc(F)cc3)[C@H]2c2ccc(C[C@@H]3O[C@H](CO)[C@@H](O)[C@H](O)[C@H]3O)cc2)cc1 [Compound 43]
melting point: 96 to 98 °C

O=C1[C@H](CCCc2ccccc2)[C@@H](c2ccc(C[C@@H]3O[C@H](CO)[C@@H](O)[C@H](O)[C@H]3O)cc2)N1c1ccccc1 [Compound 44]
melting point: 84 to 86 °C

O=C1[C@H](CC[C@H](O)c2ccc(F)cc2)[C@@H](c2ccc(/C=C/[C@@H]3O[C@H](CO)[C@@H](O)[C@H](O)[C@H]3O)cc2)N1c1ccc(F)cc1 [Compound 45]
melting point: 84 to 86 °C

O=C1[C@H](CC[C@H](O)c2ccc(F)cc2)[C@@H](c2ccc(CC[C@@H]3O[C@H](CO)[C@@H](O)[C@H](O)[C@H]3O)cc2)N1c1ccc(F)cc1 [Compound 46]
melting point: 153 to 155 °C

O=C1[C@H](CC[C@H](O)c2ccc(F)cc2)[C@@H](c2ccc(/C=C/C[C@@H]3O[C@H](CO)[C@@H](O)[C@H](O)[C@H]3O)cc2)N1c1ccc(F)cc1 [Compound 47]
melting point: 72 to 74 °C

O=C1[C@H](CC[C@H](O)c2ccc(F)cc2)[C@@H](c2ccc(CCC[C@@H]3O[C@H](CO)[C@@H](O)[C@H](O)[C@H]3O)cc2)N1c1ccc(F)cc1 [Compound 48]
melting point: 81 to 83 °C

O=C1[C@H](CC[C@H](O)c2ccc([C@H]3O[C@@H](CO)[C@H](O)[C@@H](O)[C@@H]3O)cc2)C(c2ccc(F)cc2)N1c1ccc(F)cc1 (some centres unmarked) [Compound 49]
melting point: 111 to 113 °C

O=C1[C@H](CC[C@H](O)c2ccc(F)cc2)[C@@H](c2ccc(CCCOC[C@@H]3O[C@H](CO)[C@@H](O)[C@H](O)[C@H]3O)cc2)N1c1ccc(F)cc1 [Compound 50]
melting point: 61 to 63 °C

O=C1[C@H](CC[C@H](O)c2ccc(F)cc2)[C@@H](c2ccc(/C=C/COC[C@@H]3O[C@H](CO)[C@@H](O)[C@H](O)[C@H]3O)cc2)N1c1ccc(F)cc1 [Compound 51]
melting point: 65 to 67 °C

O=C1[C@H](CC[C@H](O)c2ccc(F)cc2)[C@@H](c2ccc(/C=C/CC[C@@H]3O[C@H](CO)[C@@H](O)[C@H](O)[C@H]3O)cc2)N1c1ccc(F)cc1 [Compound 52]
melting point: 79 to 81 °C

O=C1[C@H](CC[C@H](O)c2ccc(F)cc2)[C@@H](c2ccc(CCCC[C@@H]3O[C@H](CO)[C@@H](O)[C@H](O)[C@H]3O)cc2)N1c1ccc(F)cc1 [Compound 53]
melting point: 81 to 83 °C

O=C1[C@H](CC[C@H](O)c2ccc(F)cc2)[C@@H](c2ccc(/C=C/CCC[C@@H]3O[C@H](CO)[C@@H](O)[C@H](O)[C@H]3O)cc2)N1c1ccc(F)cc1 [Compound 54]
melting point: 69 to 71 °C

O=C1[C@H](CC[C@H](O)c2ccc(F)cc2)[C@@H](c2ccc(CCCCC[C@@H]3O[C@H](CO)[C@@H](O)[C@H](O)[C@H]3O)cc2)N1c1ccc(F)cc1 [Compound 55]
melting point: 66 to 68 °C

O=C1[C@H](CC[C@H](O)c2ccc(F)cc2)[C@@H](c2ccc(CC[C@@H]3O[C@H](CO)[C@@H](O)[C@H](O)[C@H]3O)cc2)N1c1ccccc1 [Compound 56]
Reduction % of serum cholesterol value (cholesterol-fed rat; [2]): 1.9%
Reduction % of serum cholesterol value (cholesterol-fed rat; [3]): 6.9%
Reduction % of serum cholesterol value (cholesterol-fed rat; [1]): 33.5%
Combination effect on reduction % of serum cholesterol versus sum of agents alone (cholesterol-fed rat; [4]): synergistic effect
Reduction % of serum cholesterol value (cholesterol-fed rat; [5]): 20.2%
Combination effect on reduction % of serum cholesterol versus sum of agents alone (cholesterol-fed rat; [6]): synergistic effect
Reduction % of serum cholesterol value (cholesterol-fed rat; [7]): 41.3%
melting point: 82 to 84 °C

Cc1ccc(N2C(=O)[C@H](CC[C@H](O)c3ccc(F)cc3)[C@H]2c2ccc(CC[C@@H]3O[C@H](CO)[C@@H](O)[C@H](O)[C@H]3O)cc2)cc1 [Compound 57]
melting point: 116 to 118 °C

O=C(O)[C@H]1O[C@@H](CCc2ccc([C@@H]3[C@@H](CC[C@H](O)c4ccc(F)cc4)C(=O)N3c3ccccc3)cc2)[C@H](O)[C@@H](O)[C@@H]1O [Compound 58]
melting point: 110 to 112 °C

Source: patent US7795229B2, “Serum cholesterol lowering agent or preventative or therapeutic agent for atherosclerosis” (Kotobuki Pharmaceutical Co., Ltd., priority 2003, dated 2010)
